This note sets out measurements from patent US20110178064A1, “SPIRO CONDENSED […] DERIVATIVES FOR USE AS ANTIBACTERIAL” (A[…]&D, priority 2007, published 2011).

Structures are written as SMILES.

Chain of Escherichia coli DNA gyrase A/B tetramer (P0AES4 whole entry, one chain of several): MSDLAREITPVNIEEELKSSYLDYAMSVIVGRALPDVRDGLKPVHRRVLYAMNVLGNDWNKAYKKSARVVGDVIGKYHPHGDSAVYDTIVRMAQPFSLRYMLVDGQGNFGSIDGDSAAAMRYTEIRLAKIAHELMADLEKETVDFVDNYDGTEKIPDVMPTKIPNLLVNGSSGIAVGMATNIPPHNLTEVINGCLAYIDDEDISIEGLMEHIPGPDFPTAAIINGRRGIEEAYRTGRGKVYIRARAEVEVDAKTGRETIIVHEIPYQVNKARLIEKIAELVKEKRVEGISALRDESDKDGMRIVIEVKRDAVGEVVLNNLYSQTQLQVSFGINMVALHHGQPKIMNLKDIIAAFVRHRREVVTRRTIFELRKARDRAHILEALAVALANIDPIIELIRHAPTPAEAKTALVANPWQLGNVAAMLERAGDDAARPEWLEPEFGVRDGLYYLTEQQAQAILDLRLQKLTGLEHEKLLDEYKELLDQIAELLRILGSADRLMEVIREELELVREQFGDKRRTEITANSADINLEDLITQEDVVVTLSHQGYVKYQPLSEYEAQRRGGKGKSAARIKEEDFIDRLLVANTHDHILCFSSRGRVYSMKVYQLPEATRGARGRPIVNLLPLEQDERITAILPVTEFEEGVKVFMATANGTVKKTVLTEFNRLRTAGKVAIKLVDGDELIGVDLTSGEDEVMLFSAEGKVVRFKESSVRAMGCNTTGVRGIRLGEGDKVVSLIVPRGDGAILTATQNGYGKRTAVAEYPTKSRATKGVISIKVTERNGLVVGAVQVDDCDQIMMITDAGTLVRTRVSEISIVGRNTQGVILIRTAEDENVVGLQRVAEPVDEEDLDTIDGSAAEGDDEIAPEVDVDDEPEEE

The first experiment addresses Escherichia coli DNA gyrase A/B tetramer (Escherichia coli, UniProt P0AES4+P0AES6). Put plainly: DNA gyrase supercoiling activity fluorescence polarisation assay. The experiment is classed as biochemical.
Conditions: not given
As for the experimental part:
The supercoiling reactions may be quenched by the addition of 10 microliters/well of 40 nM oligodeoxynucleotide probe in 3× triplex-forming buffer consisting of 150 mM NaCl, and 150 mM sodium acetate at pH 3.5. The oligodeoxynucleotide probe may be 5′-BODIPY-FL-labeled […]. After 60 minutes, the fluorescence anisotropy of the BODIPY-FL may be measured in a Tecan Ultra plate reader, using 485 nm excitation and 535 nm emission filters equipped with polarizers. The IC50 may be determined by nonliner regression using two control reactions. The first contains no test compound but 0.8% DMSO (100% activity) while the second control reaction contains 5 uM Ciprofloxacin and 0.8% DMSO (0% activity).
For `Cc1ccc(-c2cnc3c(c2)CC2(C(=O)NC(=O)NC2=O)[C@H]2[C@H](C)O[C@H](C)CN32)s1` (relative stereo) [Example 29, (6aS,7S,9R)-rel-7,9-Dimethyl-3-(5-methylthiophen-2-yl)-6a,7,9,10-tetrahydro-2′H,5H-spiro[1,4oxazino[4,3-a][1,8]naphthyridine-6,5′-pyrimidine]-2′,4′,6′(1′H,3′H)-trione], the midpoint of inhibition, the IC50, lay at 9 µM.
For `C[C@H]1C[C@@H](C)[C@H]2N(C1)c1cnc(-c3ccn[nH]3)cc1CC21C(=O)NC(=O)NC1=O` [Example 117, (6aR,7R,9S)-7,9-Dimethyl-3-(1H-pyrazol-5-yl)-5,6a,7,8,9,10-hexahydro-1′H-spiro[pyrido[1,2-a][1,7]naphthyridine-6,5′-pyrimidine]-2′,4′,6′(3′H)-trione], the 50% inhibitory concentration (IC50) (in general, the concentration at which inhibition is half-maximal) turned out to be 1 µM.
On the same count and under the same terms, the figure for `COc1ccc(C#Cc2cc3c(nc2F)N2C[C@@H](C)O[C@@H](C)[C@@H]2C2(C3)C(=O)NC(=O)NC2=O)cc1` (relative stereo) [Example 23, (6aS,7S,9R)-rel-2-Fluoro-3-((4-methoxyphenyl)ethynyl)-7,9-dimethyl-6a,7,9,10-tetrahydro-1′H,5H-spiro[[1,4]oxazino[4,3-a][1,8]naphthyridine-6,5′-pyrimidine]-2′,4′,6′(3′H)-trione] is 6 µM; for `C[C@@H]1CN2c3ccc(-c4ccnn4C)nc3CC3(C(=O)NC(=O)NC3=O)[C@H]2[C@H](C)O1` (relative stereo) [Example 70, (2R,4S,4aS)-rel-2,4-Dimethyl-8-(1-methyl-1H-pyrazol-5-yl)-1,2,4,4a-tetrahydro-2′H,6H-spiro[1,4-oxazino[4,3-a][1,5]naphthyridine-5,5′-pyrimidine]-2′,4′,6′(1′H,3′H)-trione] it is 3 µM; for `O=C1NC(=O)C2(Cc3ccnc(Cl)c3N3CCCCC32)C(=O)N1` (centres unmarked) [Example 4, 1-chloro-5,6a,7,8,9,10-Hexahydro-1′H-spiro[pyrido[1,2-a][1,7]naphthyridine-6,5′-pyrimidine]-2′,4′,6′(3′H)-trione] it is above 100 µM.
In turn, `C[C@@H]1CN2c3ccc(-c4ccccn4)nc3CC3(C(=O)NC(=O)NC3=O)[C@H]2[C@H](C)O1` (racemic) [Example 69, (2R,4S,4aS)-rel-2,4-Dimethyl-8-(pyridin-2-yl)-1,2,4,4a-tetrahydro-2′H,6H-spiro[1,4-oxazino[4,3-a][1,5]naphthyridine-5,5′-pyrimidine]-2′,4′,6′(1′H3″H)-trione] had an IC50 of 29 µM.
In the case of `C[C@@H]1CN2c3ccc(-c4ncco4)nc3CC3(C(=O)NC(=O)NC3=O)[C@H]2[C@H](C)O1` (relative stereo) [Example 98, (2R,4S,4aS)-rel-2,4-Dimethyl-8-(1,3-oxazol-2-yl)-1,2,4,4a-tetrahydro-2′H,6H-spiro[1,4-oxazino[4,3-a][1,5]naphthyridine-5,5′-pyrimidine]-2′,4′,6′(1′H,3′H)-trione], half-maximal inhibition (IC50) required 51 µM.
On the same count and under the same terms, the figure for `C[C@@H]1CN2c3ccc(-c4cnn(C)c4)nc3CC3(C(=O)NC(=O)NC3=O)[C@H]2[C@H](C)O1` (relative stereo) [Example 79, (2R,4S,4aS)-rel-2,4-Dimethyl-8-(1-methyl-1H-pyrazol-4-yl)-1,2,4,4a-tetrahydro-2′H,6H-spiro[1,4-oxazino[4,3-a][1,5]naphthyridine-5,5′-pyrimidine]-2′,4′,6′(1′H,3′H)-trione] is 17 µM; for `C[C@@H]1CN2c3cncc(F)c3CC3(C(=O)NC(=O)NC3=O)[C@H]2[C@H](C)O1` (relative stereo) [Example 6, (6aS,7S,9R)-rel-4-Fluoro-7,9-dimethyl-6a,7,9,10-tetrahydro-1′H,5H-spiro[[1,4]oxazino[4,3-a][1,7]naphthyridine-6,5′-pyrimidine]-2′,4′,6′(3′H)-trione] it is above 83 µM.
`COc1cncc(-c2ccc3c(n2)CC2(C(=O)NC(=O)NC2=O)[C@H]2[C@H](C)O[C@H](C)CN32)n1` (relative stereo) [Example 104, (2R,4S,4aS)-rel-8-(6-Methoxypyrazin-2-yl)-2,4-dimethyl-1,2,4,4a-tetrahydro-2′H,6H-spiro[1,4-oxazino[4,3-a][1,5]naphthyridine-5,5′-pyrimidine]-2′,4′,6′(1′H,3′H)-trione]: the IC50 came to 22 µM.
For `C[C@@H]1CN2c3ncc(-c4noc(-c5ccccc5)n4)cc3CC3(C(=O)NC(=O)NC3=O)[C@H]2[C@H](C)O1` (relative stereo) [Example 123, (6aS,7S,9R)-rel-7,9-Dimethyl-3-(5-phenyl-1,2,4-oxadiazol-3-yl)-6a,7,9,10-tetrahydro-2′H,5H-spiro[1,4-oxazino[4,3-a][1,8]naphthyridine-6,5′-pyrimidine]-2′,4′,6′(1′H,3′H)-trione], 9 µM corresponded to half-maximal inhibition (IC50).
Turning to `C[C@@H]1CN2c3cnc(-c4ccnn4C)cc3CC3(C(=O)NC(=O)NC3=O)[C@H]2[C@H](C)O1` (relative stereo) [Example 57, (6aS,7S,9R)-rel-7,9-dimethyl-3-(1-methyl-1H-pyrazol-5-yl)-6a,7,9,10-tetrahydro-2′H,5H-spiro[1,4-oxazino[4,3-a][1,7]naphthyridine-6,5′-pyrimidine]-2′,4′,6′(1′H,3′H)-trione], the midpoint of inhibition, the IC50, lay at 9 µM.
In turn, `C[C@@H]1CN2c3ncc(-c4cccc5cccnc45)cc3CC3(C(=O)NC(=O)NC3=O)[C@H]2[C@H](C)O1` (relative stereo) [Example 47, (6aS,7S,9R)-rel-7,9-Dimethyl-3-(quinolin-8-yl)-6a,7,9,10-tetrahydro-2′H,5H-spiro[1,4-oxazino[4,3-a][1,8]naphthyridine-6,5′-pyrimidine]-2′,4′,6′(1′H,3′H)-trione] returned an IC50 above 83 µM.
In the case of `C[C@@H]1CN2c3nc(F)c(I)cc3CC3(C(=O)NC(=O)NC3=O)[C@H]2C(=O)N1` (relative stereo) [Example 14, (6aS,9R)-rel-2-Fluoro-3-iodo-9-methyl-9,10-dihydro-1′H-spiro[pyrazino[1,2-a][1,8]naphthyridine-6,5′-pyrimidine]-2′,4′,6′,7(3′H,5H,6aH,8H)-tetraone], it took 11 µM to reach half-maximal inhibition (IC50).
The same measure, in the same setting: the figure for `C[C@@H]1CN2c3cnc(Br)cc3CC3(C(=O)NC(=O)NC3=O)[C@H]2[C@H](C)O1` (relative stereo) [Example 3, (6aS,7S,9R)-rel-3-Bromo-7,9-dimethyl-6a,7,9,10-tetrahydro-1′H,5H-spiro[[1,4]oxazino[4,3-a][1,7]naphthyridine-6,5′-pyrimidine]-2′,4′,6′(3′H)-trione] is 11 µM; for `C[C@@H]1CN2c3cnc(-c4ccccn4)cc3CC3(C(=O)NC(=O)NC3=O)[C@H]2[C@H](C)O1` (relative stereo) [Example 55, (6aS,7S,9R)-rel-7,9-Dimethyl-3-(pyridin-2-yl)-6a,7,9,10-tetrahydro-2′H,5H-spiro[1,4-oxazino[4,3-a][1,7]naphthyridine-6,5′-pyrimidine]-2′,4′,6′(1′H,3′H)-trione] it is 21 µM.
`C[C@@H]1CN2c3c(ccnc3Cl)CC3(C(=O)NC(=O)NC3=O)[C@H]2[C@H](C)O1` (relative stereo) [Example 12, (6aS,7S,9R)-rel-1-chloro-7,9-dimethyl-6a,7,9,10-tetrahydro-1′H,5H-spiro[[1,4]oxazino[4,3-a][1,7]naphthyridine-6,5′-pyrimidine]-2′,4′,6′(3′H)-trione] returned an IC50 of 21 µM.
With `C[C@@H]1CN2c3ccc(-c4cscn4)nc3CC3(C(=O)NC(=O)NC3=O)[C@H]2[C@H](C)O1` (relative stereo) [Example 101, (2R,4S,4aS)-rel-2,4-Dimethyl-8-(1,3-thiazol-4-yl)-1,2,4,4a-tetrahydro-2′H,6H-spiro[1,4-oxazino[4,3-a][1,5]naphthyridine-5,5′-pyrimidine]-2′,4′,6′(1′H,3′H)-trione], the IC50 came out at 2 µM.
In the case of `Cc1nc(-c2cnc3c(c2)CC2(C(=O)NC(=O)NC2=O)[C@H]2[C@H](C)O[C@H](C)CN32)no1` (relative stereo) [Example 122, (6aS,7S,9R)-rel-7,9-dimethyl-3-(5-methyl-1,2,4-oxadiazol-3-yl)-6a,7,9,10-tetrahydro-2′H,5H-spiro[1,4-oxazino[4,3-a][1,8]naphthyridine-6,5′-pyrimidine]-2′,4′,6′(1′H,3′H)-trione], the IC50 is 10 µM.
Regarding `C[C@@H]1CN2c3cnc(-c4ncco4)cc3CC3(C(=O)NC(=O)NC3=O)[C@H]2[C@H](C)O1` (relative stereo) [Example 99, (6aS,7S,9R)-rel-7,9-Dimethyl-3-(1,3-oxazol-2-yl)-6a,7,9,10-tetrahydro-2′H,5H-spiro[1,4-oxazino[4,3-a][1,7]naphthyridine-6,5′-pyrimidine]-2′,4′,6′(1′H,3′H)-trione], half-maximal inhibition (IC50) required 44 µM.

The same experiment, now with this note: E. coli DNA gyrase supercoiling; asterisk: no IC50 obtained at or below the indicated concentration; read-out: IC50.
For `CC1CN2c3ncc(-c4ccnn4C)cc3CC3(C(=O)NC(=O)NC3=O)C2C(C)O1` [Example 41, (6aS,7S,9R)-rel-7,9-Dimethyl-3-(1-methyl-1H-pyrazol-5-yl)-6a., 7,9,10-tetrahydro-2′H,5H-spiro[1,4-oxazino[4,3-a][1,8]naphthyridine-6,5′-pyrimidine]-2′,4′,6′(1′H,3′H)-trione], the IC50 is 5 µM.
Turning to `C[C@@H]1CN2c3ncc(-c4ccnnc4)cc3CC3(C(=O)NC(=O)NC3=O)[C@H]2[C@H](C)O1` (relative stereo) [Example 94, (6aS,7S,9R)-rel-7,9-Dimethyl-3-(pyridazin-4-yl)-6a,7,9,10-tetrahydro-2′H,5H-spiro[1,4-oxazino[4,3-a][1,8]naphthyridine-6,5′-pyrimidine]-2′,4′,6′(1′H, 3H)-trione], the IC50 was 7 µM.
Same read-out and setting: the same measure for `COc1nccnc1-c1cc2c(cn1)N1C[C@@H](C)O[C@@H](C)[C@@H]1C1(C2)C(=O)NC(=O)NC1=O` (relative stereo) [Example 93, (6aS,7S,9R)-rel-3-(3-Methoxypyrazin-2-yl)-7,9-dimethyl-6a,7,9,10-tetrahydro-2′H,5H-spiro[1,4-oxazino[4,3-a][1,7]naphthyridine-6,5′-pyrimidine]-2′,4′,6′(1′H, 3H)-trione]: above 83 µM.
